Assay results reported in EPA's ToxRefDB 2.

Legend:
dog = settings: Carcinogenicity; beagle; Oral; Capsule; dose end: 109 month; group: systemic; systemic / pathology microscopic / urinary bladder / carcinoma + systemic / clinical chemistry / alanine aminotransferase (alt/sgpt) / …
rat [1] = settings: Developmental neurotoxicity study, wistar, Oral, Water, dose end: 45 PND, group: cannot be grouped
rat [2] = settings: Developmental neurotoxicity study; long evans; Inhalation; Whole-Body; dose end: 160 PND; group: cannot be grouped; systemic / in life observation / body weight / body weight + developmental / developmental landmark / vaginal opening / vaginal opening + …
rat [3] = settings: Carcinogenicity, sprague dawley, Oral, Feed, dose end: 24 month, group: systemic
rat [4] = settings: Multigenerational reproductive toxicity study, CD CRL:CD-BR, Oral, Water, dose end: 2 generation
mouse [5] = settings: Sub-acute repeat dose toxicity, b6c3f1, Oral, Water, dose end: 14 day, group: systemic
rat [6] = settings: Prenatal developmental toxicity study; other; Oral; Water; dose end: 15 GD; group: maternal; systemic / in life observation / body weight / body weight gain + systemic / in life observation / water consumption / water consumption
rat [7] = settings: Subchronic oral toxicity in rodents, fischer, Water, dose end: 6 month, group: systemic
mouse [8] = settings: Subchronic oral toxicity in rodents, B6C3F1, Water, dose end: 6 month, group: systemic
mouse [9] = settings: Combined chronic toxicity/carcinogenicity; b6c3f1; Oral; Water; dose end: 103 week; group: systemic; systemic / clinical chemistry / flouride / fluoride + systemic / in life observation / clinical signs / tooth-attrition + systemic / in life…
rat [10] = settings: Prenatal developmental toxicity study, other, Oral, Water, dose end: 20 GD, group: maternal
rabbit [11] = settings: Prenatal developmental toxicity study; new zealand white; Oral; Water; dose end: 19 GD; group: maternal; systemic / in life observation / body weight / body weight gain + systemic / in life observation / food consumption / food consumption + …
rat [12] = settings: Sub-acute repeat dose toxicity, fischer, Oral, Water, dose end: 14 day, group: systemic
rat [13] = settings: Combined chronic toxicity/carcinogenicity; fischer; Oral; Water; dose end: 103 week; group: systemic; systemic / clinical chemistry / flouride / fluoride + systemic / in life observation / clinical signs / tooth-mottling + systemic / in life …
rat [14] = settings: Sub-acute dermal toxicity, sprague dawley, Topical, dose end: 28 day, group: systemic
rabbit [15] = settings: Prenatal developmental toxicity study, new zealand white, Oral, Gavage/Intubation, dose end: 19 GD
rat [16] = settings: Sub-acute repeat dose toxicity, fischer, Oral, Gavage/Intubation, dose end: 14 day, group: systemic
mouse [17] = settings: Subchronic oral toxicity in rodents, b6c3f1, Gavage/Intubation, dose end: 13 week, group: systemic
rat [18] = settings: Multigenerational reproductive toxicity study; sprague dawley; Oral; Gavage/Intubation; dose end: 2 generation; group: parental; systemic / organ weight / liver / nos
rat [19] = settings: Prenatal developmental toxicity study, sprague dawley, Oral, Gavage/Intubation, dose end: 15 GD
mouse [20] = settings: Sub-acute repeat dose toxicity, b6c3f1, Oral, Gavage/Intubation, dose end: 14 day, group: systemic
rat [21] = settings: Prenatal developmental toxicity study, sprague dawley, Oral, Gavage/Intubation, dose end: 15 GD; remark: listed apart in the source
rat [22] = settings: Subchronic oral toxicity in rodents, fischer, Gavage/Intubation, dose end: 13 week, group: systemic
[23] = systemic / clinical chemistry / dopamine / dopamine + systemic / clinical chemistry / protein / protein + systemic / in life observation / …
[24] = systemic / in life observation / clinical signs / tooth-dysplasia + systemic / in life observation / clinical signs / tooth-discolored + …
[25] = systemic / organ weight / [other] / absolute + systemic / organ weight / [other] / relative to body weight + systemic / organ weight / …
[26] = group: offspring, systemic / in life observation / clinical signs / tooth nos
[27] = group: parental, systemic / in life observation / water consumption / water consumption + systemic / pathology microscopic / stomach / hyperkeratosis + …
[28] = systemic / in life observation / body weight / body weight
[29] = systemic / pathology gross / stomach / hemorrhage + systemic / pathology gross / stomach / ulcer + systemic / pathology microscopic / …
[30] = systemic / in life observation / body weight / body weight gain
[31] = systemic / in life observation / body weight / body weight gain + systemic / in life observation / food consumption / food consumption + …
[32] = systemic / in life observation / body weight / body weight + systemic / in life observation / clinical signs / dehydration + systemic / in …
[33] = systemic / in life observation / body weight / body weight gain + systemic / in life observation / clinical signs / erythema + systemic / in…
[34] = systemic / in life observation / clinical signs / erythema + systemic / pathology microscopic / skin / edema + systemic / in life …
[35] = group: developmental, developmental / developmental malformation / bone / absent + developmental / developmental malformation / bone / malpositioned + …
[36] = group: maternal, systemic / in life observation / body weight / body weight gain + systemic / in life observation / food consumption / food consumption
[37] = group: maternal, systemic / in life observation / body weight / body weight gain + systemic / in life observation / food consumption / food consumption + …
[38] = systemic / pathology microscopic / liver / degeneration
[39] = systemic / pathology microscopic / liver / degeneration + systemic / in life observation / body weight / body weight + systemic / in life …
[40] = group: developmental, developmental / developmental malformation / bone / supernumerary + systemic / in life observation / body weight / fetal weight
[41] = group: maternal, systemic / in life observation / clinical signs / body surface staining + systemic / in life observation / clinical signs / salivation + …
[42] = systemic / in life observation / body weight / body weight + systemic / in life observation / clinical signs / fur (altered appearance) + …
[43] = group: developmental, systemic / in life observation / body weight / fetal weight
[44] = systemic / in life observation / body weight / body weight + systemic / in life observation / clinical signs / defecation (diarrhea)

SMILES: Nc1ccc2ccccc2c1 [2-Naphthylamine]
- LEL (dog): 18.4 mg/kg/day
- LOAEL (dog): > 18.4 mg/kg/day
- NEL (dog): < 18.4 mg/kg/day
- NOAEL (dog): ≥ 18.4 mg/kg/day

SMILES: CO [Methanol]
- LOAEL (rat [1]; [23]): > 2000 mg/kg/day
- NEL (rat [1]; [23]): 500 mg/kg/day
- NOAEL (rat [1]; [23]): ≥ 2000 mg/kg/day
- LEL (rat [1]; systemic / clinical chemistry / protein / protein + systemic / clinical chemistry / dopamine / dopamine + systemic / in life observation / …): 1000 mg/kg/day
- LEL (rat [2]): 6110 mg/kg/day
- LOAEL (rat [2]): > 6110 mg/kg/day
- NEL (rat [2]): < 6110 mg/kg/day
- NOAEL (rat [2]): ≥ 6110 mg/kg/day

SMILES: [F-].[Na+] [Sodium fluoride]
- LEL (rat [3]; [24]): 4 mg/kg/day
- NEL (rat [3]; [24]): < 4 mg/kg/day
- LOAEL (rat [3]; [25]): > 25 mg/kg/day
- NOAEL (rat [3]; [25]): ≥ 25 mg/kg/day
- LEL (rat [4]; [26]): 12.5 mg/kg/day
- LOAEL (rat [4]; [26]): > 12.5 mg/kg/day
- NEL (rat [4]; [26]): 8.75 mg/kg/day
- NOAEL (rat [4]; [26]): ≥ 12.5 mg/kg/day
- LOAEL (rat [4]; [27]): > 12.5 mg/kg/day
- NEL (rat [4]; [27]): 1.25 mg/kg/day
- NOAEL (rat [4]; [27]): ≥ 12.5 mg/kg/day
- LEL (rat [4]; group: parental, systemic / pathology microscopic / stomach / hyperkeratosis + systemic / in life observation / water consumption / water consumption): 5 mg/kg/day
- LOAEL (mouse [5]; [28]): 7.5 mg/kg/day
- NOAEL (mouse [5]; [28]): < 7.5 mg/kg/day
- NEL (mouse [5]; systemic / in life observation / body weight / body weight + systemic / in life observation / water consumption / water consumption): 60 mg/kg/day
- LEL (mouse [5]; systemic / in life observation / body weight / body weight + systemic / in life observation / water consumption / water consumption + …): 120 mg/kg/day
- LEL (rat [6]): 27 mg/kg/day
- LOAEL (rat [6]): > 27 mg/kg/day
- NEL (rat [6]): 18 mg/kg/day
- NOAEL (rat [6]): ≥ 27 mg/kg/day
- LOAEL (rat [7]; [29]): 15 mg/kg/day
- NEL (rat [7]; [29]): 1.5 mg/kg/day
- NOAEL (rat [7]; [29]): 5 mg/kg/day
- LEL (rat [7]; systemic / pathology microscopic / stomach / hyperplasia): 5 mg/kg/day
- LOAEL (mouse [8]; [30]): 30 mg/kg/day
- NOAEL (mouse [8]; systemic / in life observation / body weight / body weight gain + systemic / in life observation / clinical signs / [other] + systemic / in …): 15 mg/kg/day
- NEL (mouse [8]; systemic / in life observation / body weight / body weight gain + systemic / pathology microscopic / bone / proliferation + systemic / in …): 1.5 mg/kg/day
- LEL (mouse [8]; systemic / pathology microscopic / bone / proliferation): 7.5 mg/kg/day
- LEL (mouse [9]): 2.4 mg/kg/day
- LOAEL (mouse [9]): 2.4 mg/kg/day
- NEL (mouse [9]): < 2.4 mg/kg/day
- NOAEL (mouse [9]): < 2.4 mg/kg/day
- LOAEL (rat [10]; [31]): > 25.1 mg/kg/day
- NEL (rat [10]; [31]): 15.6 mg/kg/day
- NOAEL (rat [10]; [31]): ≥ 25.1 mg/kg/day
- LEL (rat [10]; systemic / in life observation / water consumption / water consumption): 24.7 mg/kg/day
- LEL (rabbit [11]): 29 mg/kg/day
- LOAEL (rabbit [11]): > 29 mg/kg/day
- NEL (rabbit [11]): 18 mg/kg/day
- NOAEL (rabbit [11]): ≥ 29 mg/kg/day
- LOAEL (rat [12]; [28]): 5 mg/kg/day
- LEL (rat [12]; [32]): 20 mg/kg/day
- NEL (rat [12]; [32]): 10 mg/kg/day
- NOAEL (rat [12]; [32]): 2.5 mg/kg/day
- LEL (rat [13]): 1.3 mg/kg/day
- LOAEL (rat [13]): 1.3 mg/kg/day
- NEL (rat [13]): < 1.3 mg/kg/day
- NOAEL (rat [13]): < 1.3 mg/kg/day

SMILES: O=S(=O)([O-])[O-].OC[P+](CO)(CO)CO.OC[P+](CO)(CO)CO [Tetrakis(hydroxymethyl)phosphonium sulfate]
- LOAEL (rat [14]; [33]): > 500 mg/kg/day
- NOAEL (rat [14]; [33]): ≥ 500 mg/kg/day
- LEL (rat [14]; [34]): 25 mg/kg/day
- NEL (rat [14]; [34]): < 25 mg/kg/day
- LEL (rabbit [15]; [35]): 60 mg/kg/day
- LOAEL (rabbit [15]; [35]): 60 mg/kg/day
- NEL (rabbit [15]; [35]): 18 mg/kg/day
- NOAEL (rabbit [15]; [35]): 18 mg/kg/day
- LOAEL (rabbit [15]; [36]): 60 mg/kg/day
- LEL (rabbit [15]; [37]): 60 mg/kg/day
- NEL (rabbit [15]; [37]): 18 mg/kg/day
- NOAEL (rabbit [15]; [37]): 18 mg/kg/day
- LOAEL (rat [16]; systemic / in life observation / body weight / body weight + systemic / in life observation / body weight / body weight gain): 25 mg/kg/day
- NOAEL (rat [16]; systemic / in life observation / body weight / body weight + systemic / in life observation / body weight / body weight gain + systemic / in…): 12.5 mg/kg/day
- LEL (rat [16]; [30]): 25 mg/kg/day
- NEL (rat [16]; systemic / in life observation / body weight / body weight gain + systemic / in life observation / mortality / mortality): 12.5 mg/kg/day
- LEL (mouse [17]; [38]): 20 mg/kg/day
- LOAEL (mouse [17]; [38]): 20 mg/kg/day
- NEL (mouse [17]; [39]): 10 mg/kg/day
- NOAEL (mouse [17]; [39]): 10 mg/kg/day
- LEL (rat [18]): 15 mg/kg/day
- LOAEL (rat [18]): > 15 mg/kg/day
- NEL (rat [18]): 7.5 mg/kg/day
- NOAEL (rat [18]): ≥ 15 mg/kg/day
- LEL (rat [19]; [40]): 60 mg/kg/day
- LOAEL (rat [19]; [40]): 60 mg/kg/day
- NEL (rat [19]; [40]): 30 mg/kg/day
- NOAEL (rat [19]; [40]): 30 mg/kg/day
- LEL (rat [19]; [41]): 30 mg/kg/day
- LOAEL (rat [19]; [41]): 30 mg/kg/day
- NEL (rat [19]; [41]): 15 mg/kg/day
- NOAEL (rat [19]; [41]): 15 mg/kg/day
- LEL (mouse [20]; [28]): 25 mg/kg/day
- LOAEL (mouse [20]; [28]): 50 mg/kg/day
- NEL (mouse [20]; [42]): 12.5 mg/kg/day
- NOAEL (mouse [20]; [42]): 25 mg/kg/day
- LEL (rat [21]; [43]): 60 mg/kg/day
- LOAEL (rat [21]; [43]): 60 mg/kg/day
- NEL (rat [21]; [43]): 30 mg/kg/day
- NOAEL (rat [21]; [43]): 30 mg/kg/day
- LEL (rat [21]; [36]): 60 mg/kg/day
- LOAEL (rat [21]; [36]): 60 mg/kg/day
- NEL (rat [21]; [37]): 30 mg/kg/day
- NOAEL (rat [21]; [37]): 30 mg/kg/day
- LEL (rat [22]; [44]): 5 mg/kg/day
- NEL (rat [22]; [44]): < 5 mg/kg/day
- NOAEL (rat [22]; systemic / in life observation / body weight / body weight + systemic / in life observation / clinical signs / defecation (diarrhea) + …): 20 mg/kg/day
- LOAEL (rat [22]; systemic / in life observation / body weight / body weight + systemic / pathology microscopic / liver / degeneration): 40 mg/kg/day
